From US20100240537A1, “Substituted 6-(alkylbenzylamino)purine derivatives for use as cytokinin receptor antagonists and preparations containing these derivatives” (priority 2007, published 2010)

Tests used:
[1] = test system: cytokinin-dependent tobacco callus Nicotiana tabacum L. cv. Wisconsin 38; assay: Cytokinin-dependent tobacco callus bioassay; assay type: cell-based; details: for activity (%) [10^−6 mol · l^−1 BA = 100%]: at concentration with highest activity, n.a. means inactive; for concentration with highest activity: callus fresh weight after four weeks
Protocol: Stimulatory effect of newly prepared derivatives was tested using cytokinin-dependent tobacco callus. The cytokinin-dependent tobacco callus Nicotiana tabacum L. cv. Wisconsin 38 was maintained at 25° C. in darkness on modified MS medium, containing per 1 liter: 4 μmol of nicotinic acid, 2.4 μmol of pyridoxine hydrochloride, 1.2 μmol of thiamine, 26.6 μmol of glycine, 1.37 μmol of glutamine, 1.8 μmol of myo-inositol, 30 g of sucrose, 8 g of agar, 5.37 μmol of NAA and 0.5 μmol of the compound tested. Subcultivation was carried out every three weeks. Fourteen days before the bioassay, the callus tissue was transferred to the media without 6-benzylaminopurine. The biological activity was determined from the increase of the fresh callus weight after four weeks of cultivation. Five replicates were prepared for each concentration of the compound tested and the entire test was repeated twice. […] The compounds to be tested were dissolved in dimethylsulfoxide (DMSO) and the solution brought up to 10^−3M with distilled water. This stock solution was further diluted with the respective media used for the biotest to a concentration ranging from 10^−8M to 10^−4M.
From the obtained data, the concentration with the highest activity was selected for each compound tested. Relative activity of the compound at this concentration was calculated (Table 3). The activity obtained for 10^−6 M of the control substance 6-benzylaminopurine was postulated as 100% biological activity. […]

[2] = test system: Human diploid fibroblasts SNF25; assay: MTT viability assay on human diploid fibroblasts; assay type: cell-based; details: Homo sapiens, Fibroblast; SNF25 passage 19, 72 hours; read-out: IC50 (reduction in mitochondrial activity, MTT)
Protocol: MTT is a standard colorimetric assay for measurement of proliferation and survival of the cells. Yellow MTT is reduced into violet formazan in metabolically active cells. The amount of formazan is measured by spectrometry. Human diploid fibroblasts SNF25 (passage 19) were seeded in 96-well plate (5000 cells per well). After 6 hours, the cultivation medium (DMEM containing 5 g/l glucose, 2 mM glutamin, 100 U/ml penicillin, 100 μg/ml streptomycin and 10% fetal calf serum) was removed and fresh medium containing a test compound in concentration range of 0-100 μM was added. The concentration was adjusted in cases of compounds with limited solubility. Each concentration was tested in 5 replicates. MTT was added to the cells after 72 hours into final concentration of 0.5 mg/ml. Incubation time was 3 hours. Resulting MTT was disolved in DMSO and absorbance was measured. The cytotoxic effect was estimated as IC=(Awells with compounds/Acontrol wells)×100%.

[3] = test system: osteosarcoma cell line HOS; assay: Calcein AM cytotoxicity assay, HOS; assay type: cell-based, human; details: Homo sapiens, 72 hours
Description: (§1) Absence of toxic effects against mammalian (especially human) cell lines in a wide concentration range is one of the requirements on compounds intended for use in agriculture. Because toxic compounds negatively influence metabolic processes in cells, many standard cytotoxicity assays are based on measurement of metabolisation rate of various artificial substrates. Resulting product is then quantified e.g. by means of spectrometry. The assays can be easily modified for use in 96-well plates. For evaluation of cytotoxic effect of the novel substituted 6-(alkylbenzylamino)purine derivatives of this invention, a microtiter assay based on quantification of metabolisation of Calcein AM was used. The assay is widely used in drug screening programs and in chemosensitivity testing. In live cells, Calcein AM is enzymatically hydrolysed and accumulation of resulting calcein is manifested by green fluorescence.
(§2) The cells were maintained in Nunc/Corning 80 cm^2 plastic tissue culture flasks and cultured in cell culture medium (DMEM with 5 g/l glucose, 2 mM glutamine, 100 U/ml penicillin, 100 μg/ml streptomycin, 10% fetal calf serum and sodium bicarbonate).
(§3) The cell suspensions were prepared and diluted according to the particular cell type and the expected target cell density (10^4 cells per well based on cell growth characteristics) and pippetted (80 μl) into 96-well plates. Inoculates were allowed a pre-incubation period of 24 hours at 37° C., 100% humidity and 5% CO2 for stabilisation. Tested compounds were added in total volume of 20 μl of water at time zero. Usually, test compound was evaluated at six 3-fold dilutions. In routine testing, the highest concentration tested was 100 μM, the eventual changes depended on physico-chemical characteristics of the respective compound. All drug concentrations were tested in triplicates. Incubations of cells with the test compounds lasted for 72 hours at 37° C., in 5% CO2 atmosphere and 100% humidity. At the end of incubation period Calcein AM (Molecular Probes) in PBS was added into final concentration of 1 μg/ml. After another 1 hour of incubation fluorescence (FD) was measured with the Labsystem FIA Reader Fluoroscan Ascent (UK). Growth inhibition (GI) was estimated using the following equitation: GI=(mean FDdrug exposed wells−mean FDblank)/(mean FDcontrol wells−mean FDblank)×100%.

[4] = test system: erytroid leukemia cell line K-562; assay: Calcein AM cytotoxicity assay, K-562; assay type: cell-based, human; details: Homo sapiens, K562, 72 hours
Description: as §1, §2, §3

[5] = test system: human diploid fibroblasts BJ; assay: Calcein AM cytotoxicity assay, BJ; assay type: cell-based; details: Homo sapiens, Fibroblast, 72 hours
Description: as §1, §2, §3

[6] = test system: breast carcinoma cell line MCF-7; assay: Calcein AM cytotoxicity assay, MCF-7; assay type: cell-based, human; details: Homo sapiens, MCF7, 72 hours
Description: as §1, §2, §3

CRE1/AHK4 = target: T1, CRE1/AHK4 (Arabidopsis thaliana, UniProt Q9C5U0); assay: Activation of cytokinin receptor CRE1/AHK4 in E. coli KMI001 (β-galactosidase reporter); assay type: cell-based; details: for EC50 CRE1/AHK4 (activation of cytokinin receptor): E. coli KMI001 pIN-III-AHK4, 17 h incubation, n.i. means without interaction
T1 construct: expressed in transfected cells; host or cells: Escherichia coli KMI001, plasmid pIN-III-AHK4
T1 sequence (Q9C5U0 whole entry): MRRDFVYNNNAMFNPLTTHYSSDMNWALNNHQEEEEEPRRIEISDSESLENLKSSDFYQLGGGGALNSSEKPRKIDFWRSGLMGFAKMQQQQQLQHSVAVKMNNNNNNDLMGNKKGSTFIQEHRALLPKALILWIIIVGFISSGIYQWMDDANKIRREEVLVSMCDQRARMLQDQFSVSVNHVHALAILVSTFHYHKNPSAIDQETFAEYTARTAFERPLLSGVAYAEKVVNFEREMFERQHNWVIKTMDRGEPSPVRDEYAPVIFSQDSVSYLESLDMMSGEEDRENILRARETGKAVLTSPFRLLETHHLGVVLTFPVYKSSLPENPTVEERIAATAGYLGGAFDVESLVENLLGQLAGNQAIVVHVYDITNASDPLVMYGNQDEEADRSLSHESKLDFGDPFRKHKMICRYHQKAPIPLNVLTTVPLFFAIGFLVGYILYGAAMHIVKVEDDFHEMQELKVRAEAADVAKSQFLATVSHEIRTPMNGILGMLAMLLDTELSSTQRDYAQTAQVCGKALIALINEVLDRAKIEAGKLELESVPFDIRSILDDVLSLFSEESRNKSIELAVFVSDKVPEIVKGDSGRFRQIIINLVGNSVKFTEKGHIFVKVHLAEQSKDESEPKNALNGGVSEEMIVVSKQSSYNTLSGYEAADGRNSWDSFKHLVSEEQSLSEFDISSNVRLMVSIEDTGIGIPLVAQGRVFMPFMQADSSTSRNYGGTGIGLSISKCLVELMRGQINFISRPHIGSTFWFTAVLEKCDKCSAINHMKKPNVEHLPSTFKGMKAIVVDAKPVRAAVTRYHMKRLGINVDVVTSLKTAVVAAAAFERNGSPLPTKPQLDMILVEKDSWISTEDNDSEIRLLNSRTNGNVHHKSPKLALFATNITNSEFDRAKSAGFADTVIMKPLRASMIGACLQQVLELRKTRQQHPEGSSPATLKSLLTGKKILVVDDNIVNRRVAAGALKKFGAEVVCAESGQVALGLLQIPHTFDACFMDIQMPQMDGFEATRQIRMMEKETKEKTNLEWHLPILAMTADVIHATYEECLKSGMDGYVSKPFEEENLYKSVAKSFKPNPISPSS
Protocol: Escherichia coli strains KMI001 harbouring the plasmid pIN-III-AHK4 or pSTV28-AHK3 were grown overnight at 25° C. in M9 media enriched with 0.1% casamino acids to OD600˜1. The preculture was diluted 1:600 in 1 ml M9 medium containing 0.1% casamino acids and 1 μl stock solution of either the tested compound (10^−7 M−5×10^−5 M) or solvent control (DMSO, ethanol, methanol) were added. The cultures were further grown at 25° C. in microtiter plate, 200 μl per well. […] The cultures were centrifuged and 50 μl aliquots of the supernatant were transferred to microtiter plate containing 2 μl 50 mM 4-methyl umbelliferyl galactoside which was subsequently incubated for 1 h at 37° C. The reaction was stopped by adding 100 μl 0.2 M Na2CO3. Fluorescence was measured using a Fluoroscan Ascent (Labsystems, Finland) at the excitation and emission wavelengths of 365 and 460 nm, respectively. The OD600 of remaining culture was determined and β-galactosidase activity was calculated as nmol 4-methylumbelliferone×OD600^−1×h^−1.
The EC50 value, the compound concentration activating the receptor to 50%, was calculated from the obtained dose response curves. The compound functioning as cytokinin antagonists should not activate cytokinin signalling pathway. The values shown in Table 2 are means of three replicates and the entire test was repeated at least twice.

Compound | activity (%) [10^−6 mol · l^−1 BA = 100%] [1] | concentration with highest activity [1] | IC50 [2] | GI50 [3] | GI50 [4] | GI50 [5] | GI50 [6] | EC50 CRE1/AHK4 (activation of cytokinin receptor) (CRE1/AHK4) | EC50 (CRE1/AHK4)
Cc1cccc(CNc2ncnc3nc[nH]c23)c1O [Compound 8, 6-(2-hydroxy-3-methylbenzylamino)purine] | 2 (±2) % | 10^−4 mol.l^−1 | > 50 µM | > 50 µM | > 50 µM | > 50 µM | > 50 µM | n.i. | –
c1ccc(CNc2ncnc3nc[nH]c23)cc1 [6-(benzylamino)purine] | 100% | 10^−6 mol.l^−1 | > 100 µM | > 100 µM | > 100 µM | > 100 µM | > 100 µM | – | 19.7 µM
Cc1ccc(O)c(CNc2ncnc3nc[nH]c23)c1 [Compound 10, 6-(2-hydroxy-5-methylbenzylamino)purine] | 35 (±8) % | 10^−4 mol.l^−1 | > 100 µM | > 100 µM | > 100 µM | > 100 µM | > 100 µM | n.i. | –
